According to US10039288B2, “Pathogenic infections” (University of Surrey, priority 2015, dated 2018):
In brackets after ≈: the same amount, converted by molar mass. Several values for one entry are separate records, joined by “and”; a condition that tells them apart may be missing. Equal entries are not always repeated. Where two headings read alike, the source gives them in different places.

Legend:
[1] = test system: P. viticola; parameters: species or system Plasmopara viticola
[2] = test system: Plasmopara viticola; assay: In vitro zoospore germination and activity, MIC(100%); assay type: cell-based; settings: for Minimal inhibitory concentration (MIC(100%)) Plasmopara viticola: zoospore germination and activity, in vitro; for MIC: Plasmopara viticola, read-out: Minimal inhibitory concentration (MIC(100%)) Plasmopara viticola
[3] = test system: Phytophthora infestans; assay type: cell-based; settings: germination, in vitro
[4] = test system: Plasmopara viticola; assay: Preliminary screening of crude extracts and compounds (Table 3)
[5] = 0.147% mass/volume, Isopropanol

`C=C[C@@](C)(O)CC[C@H]1C(=C)C[C@H](O)[C@H]2C(C)(C)CCC[C@]12C` [Compound 1, larixol] was tested, and the “Efficacy (%)” value ([1]; 0.0147% mass/volume, Isopropanol) was 36.3%, the “Efficacy (%)” value ([1]; 0.025% mass/volume, Ethanol) was 91.2% and the “Efficacy (%)” value ([1]; 0.074% mass/volume, Isopropanol) was 100.0%. For the same compound, the “Efficacy (%)” value ([1]; 0.1% mass/volume, Ethanol) was 98.8%, the “Efficacy (%)” value [1, 5] was 99.5% and the “Minimal inhibitory concentration (MIC(100%)) Plasmopara viticola” value [2] was 16 ppm. For the same compound, the “Minimal inhibitory concentration (MIC(100%)) Phytophthora infestans” value [3] was 500 ppm, the Activity ([4]; sample 0.0147% mass/volume) was 36.3% and the Activity ([4]; sample 0.074% mass/volume) was 100%. For the same compound, the Activity ([4]; sample 0.147% mass/volume) was 99.5%.

With `COc1cc(C[C@H]2CO[C@H](c3ccc(O)c(OC)c3)[C@H]2CO)ccc1O` [Compound 3, (+)-lariciresinol] the MIC [2] was 250 µg/mL (≈ 694 µM), the “Minimal inhibitory concentration (MIC(100%)) Phytophthora infestans” value [3] was “No activity” and the Activity ([4]; sample 0.01% mass/volume) was 14.4%. The Activity ([4]; sample 0.1% mass/volume) was 94.1%.

With `COc1cc(C[C@H]2CO[C@H](c3ccc(O)c(OC)c3)[C@H]2COC(C)=O)ccc1O` [Compound 4, (+)-lariciresinol acetate] the MIC [2] was 125 µg/mL, the “Minimal inhibitory concentration (MIC(100%)) Phytophthora infestans” value [3] was “No actvity” and the Activity ([4]; sample 0.008% mass/volume) was 13.1%. The Activity ([4]; sample 0.036% mass/volume) was 78.8% and the Activity ([4]; sample 0.08% mass/volume) was 92.4%.

In the case of `C=CC(C)(O)CCC1C(=C)CC(OC(C)=O)C2C(C)(C)CCCC12C` (stereo not drawn) [Compound 2, larixyl acetate], the “Efficacy (%)” value ([1]; 0.01% mass/volume, Isopropanol) is reported as 24.5%, the “Efficacy (%)” value ([1]; 0.012% mass/volume, Ethanol) is reported as 69.2% and the “Efficacy (%)” value ([1]; 0.025% mass/volume, Ethanol) is reported as 83.3%. For the same compound, the “Efficacy (%)” value ([1]; 0.05% mass/volume, Ethanol) was 98.4%, the “Efficacy (%)” value ([1]; 0.1% mass/volume, Ethanol) was 99.9% and 99.4% and the “Efficacy (%)” value ([1]; 0.12% mass/volume, Ethanol) was 100.0%. For the same compound, the “Efficacy (%)” value [1, 5] was 99.5%, the “Minimal inhibitory concentration (MIC(100%)) Plasmopara viticola” value [2] was 4 ppm and the “Minimal inhibitory concentration (MIC(100%)) Phytophthora infestans” value [3] was 125 ppm. It also gave an Activity ([4]; sample 0.012% mass/volume) of 69.2% and an Activity ([4]; sample 0.12% mass/volume) of 100%.
